Laboratory results taken from article PMC3399817 (PLoS ONE, 2012).

Tests used:
[1] = molecular target: T1, RPS6KA2(Kin.Dom.1-N-terminal) (Homo sapiens, UniProt Q15349); experiment: KINOMEscan; type: binding; settings: 1 uM
T1 construct: RPS6KA2(Kin.Dom.1-N-terminal); purchased Ambit KINOMEscan (DiscoverX)
Summary of the method: (§1)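 Panel profiling at one dose (1 μM) identifies kinases prevented from binding substrate by the test molecule.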

MAPKAPK2 = molecular target: T2, MAPKAPK2 (Homo sapiens, UniProt P49137); experiment: KINOMEscan; type: binding; settings: MAPKAPK2, 1 uM
T2 construct: purchased Ambit KINOMEscan (DiscoverX)

panel of 402 kinases = experiment: KINOMEscan panel; type: binding; settings: 1 μM
Method: (§2) First, we used Ambit's KINOMEscan™ technology to identify those kinases that are inhibited for substrate binding by the compounds, all assayed at 1 μM. Second, we used Invitrogen's SelectScreen® Biochemical Kinase Profiling Service to determine the in vitro IC50s for the compounds against specific kinases.

HKe-3 (K-RAS^−/+) = experiment: Cell viability (Syto60); type: cell-based; settings: 72 hours; for cooperation with / sensitization to AZ-628 (cell viability): K-RAS wild-type cells (HKe-3), 1 µM AZ-628
Method: All colon cancer cell lines were maintained in DMEM supplemented with penicillin (100 units/mL), streptomycin (100 μg/mL), and 10% fetal bovine serum (FBS). The rectal cancer cell line (Car1) was maintained in DMEM/F12 supplemented with penicillin (100 units/mL)/streptomycin (50 μg/mL), and 5% FBS. […] The target sequences for knockdowns can be found in Table S2. In drug treatment experiments, cells were plated for 24 hours prior to exposure to drug. AZ-628 was obtained from AstraZeneca. CI-1040 was obtained from Pfizer. R406 was synthesized in the Gray laboratory. BAY61-3606 and IKK VII were purchased from EMD Biosciences. BAY derivatives were synthesized for this study.
(§3) Cell cycle analysis was performed via FACS-based propidium iodide quantification, using standard methods. To measure cell viability, cells were grown in 96-well plates in the presence or absence of drug for 72 hours, fixed with 4% paraformaldehyde, and then stained with Syto60 (Invitrogen). Plates were imaged and quantified using the LiCor Odyssey system (LiCor).

PRP4 = molecular target: T3, PRP4 (Homo sapiens, UniProt Q13523); experiment: KINOMEscan; type: binding; settings: PRP4, 1 uM
T3 construct: purchased Ambit KINOMEscan (DiscoverX)

PIK3CA(H1047L) = molecular target: T4, PIK3CA(H1047L) (Homo sapiens, UniProt P42336, H1047L); experiment: KINOMEscan; type: binding; settings: 1 uM
T4 construct: purchased Ambit KINOMEscan (DiscoverX)
Summary of the method: as §1

[2] = molecular target: T5, ABL1(F317I)-phosphorylated (Homo sapiens, UniProt P00519, F317I); experiment: KINOMEscan; type: binding; settings: 1 uM
T5 construct: purchased Ambit KINOMEscan (DiscoverX)
Summary of the method: as §1

MET(M1250T) = molecular target: T6, MET(M1250T) (Homo sapiens, UniProt P08581, M1250T); experiment: KINOMEscan; type: binding; settings: 1 uM
T6 construct: purchased Ambit KINOMEscan (DiscoverX)
Summary of the method: as §1

FLT3 = molecular target: T7, FLT3 (Homo sapiens, UniProt P36888); experiment: KINOMEscan; type: binding; settings: FLT3, 1 uM
T7 construct: purchased Ambit KINOMEscan (DiscoverX)
Summary of the method: as §1

MEK5 = molecular target: T8, MEK5 (Homo sapiens, UniProt Q13163); experiment: KINOMEscan; type: binding; settings: MEK5, 1 uM
T8 construct: purchased Ambit KINOMEscan (DiscoverX)
Summary of the method: as §1

FLT3(D835Y) = molecular target: T9, FLT3(D835Y) (Homo sapiens, UniProt P36888, D835Y); experiment: KINOMEscan; type: binding; settings: 1 uM
T9 construct: purchased Ambit KINOMEscan (DiscoverX)
Summary of the method: as §1

SGK3 = molecular target: T10, SGK3 (Homo sapiens, UniProt Q96BR1); experiment: KINOMEscan; type: binding; settings: SGK3, 1 uM
T10 construct: purchased Ambit KINOMEscan (DiscoverX)
Summary of the method: as §1

EGFR(T790M) = molecular target: T11, EGFR(T790M) (Homo sapiens, UniProt P00533, T790M); experiment: KINOMEscan; type: binding; settings: 1 uM
T11 construct: purchased Ambit KINOMEscan (DiscoverX)
Summary of the method: as §1

TRPM6 = molecular target: T12, TRPM6 (Homo sapiens, UniProt Q9BX84); experiment: KINOMEscan; type: binding; settings: TRPM6, 1 uM
T12 construct: purchased Ambit KINOMEscan (DiscoverX)
Summary of the method: as §1

EPHA7 = molecular target: T13, EPHA7 (Homo sapiens, UniProt Q15375); experiment: KINOMEscan; type: binding; settings: EPHA7, 1 uM
T13 construct: purchased Ambit KINOMEscan (DiscoverX)
Summary of the method: as §1

MTOR = molecular target: T14, MTOR (Homo sapiens, UniProt P42345); experiment: KINOMEscan; type: binding; settings: 1 uM
T14 construct: purchased Ambit KINOMEscan (DiscoverX)
Summary of the method: as §1

EGFR(L861Q) = molecular target: T15, EGFR(L861Q) (Homo sapiens, UniProt P00533, L861Q); experiment: KINOMEscan; type: binding; settings: 1 uM
T15 construct: purchased Ambit KINOMEscan (DiscoverX)
Summary of the method: as §1

[3] = molecular target: T16, ABL1(H396P)-phosphorylated (Homo sapiens, UniProt P00519, H396P); experiment: KINOMEscan; type: binding; settings: 1 uM
T16 construct: purchased Ambit KINOMEscan (DiscoverX)
Summary of the method: as §1

KIT(D816H) = molecular target: T17, KIT(D816H) (Homo sapiens, UniProt P10721, D816H); experiment: KINOMEscan; type: binding; settings: 1 uM
T17 construct: purchased Ambit KINOMEscan (DiscoverX)
Summary of the method: as §1

RET(M918T) = molecular target: T18, RET(M918T) (Homo sapiens, UniProt P07949, M918T); experiment: KINOMEscan; type: binding; settings: 1 uM
T18 construct: purchased Ambit KINOMEscan (DiscoverX)
Summary of the method: as §1

S6K1 = molecular target: T19, S6K1 (Homo sapiens, UniProt P23443); experiment: KINOMEscan; type: binding; settings: S6K1, 1 uM
T19 construct: purchased Ambit KINOMEscan (DiscoverX)
Summary of the method: as §1

RET(V804M) = molecular target: T20, RET(V804M) (Homo sapiens, UniProt P07949, V804M); experiment: KINOMEscan; type: binding; settings: 1 uM
T20 construct: purchased Ambit KINOMEscan (DiscoverX)
Summary of the method: as §1

MYLK4 = molecular target: T21, MYLK4 (Homo sapiens, UniProt Q86YV6); experiment: KINOMEscan; type: binding; settings: MYLK4, 1 uM
T21 construct: purchased Ambit KINOMEscan (DiscoverX)
Summary of the method: as §1

CAMK2G = molecular target: T22, CAMK2G (Homo sapiens, UniProt Q13555); experiment: KINOMEscan; type: binding; settings: 1 uM
T22 construct: purchased Ambit KINOMEscan (DiscoverX)
Summary of the method: as §1

NEK3 = molecular target: T23, NEK3 (Homo sapiens, UniProt P51956); experiment: KINOMEscan; type: binding; settings: NEK3, 1 uM
T23 construct: purchased Ambit KINOMEscan (DiscoverX)
Summary of the method: as §1

CDK4-cyclinD1 = molecular target: T24, CDK4-cyclinD1 (Homo sapiens, UniProt P11802); experiment: KINOMEscan; type: binding; settings: CDK4-cyclinD1, 1 uM
T24 construct: purchased Ambit KINOMEscan (DiscoverX)
Summary of the method: as §1

TLK2 = molecular target: T25, TLK2 (Homo sapiens, UniProt Q86UE8); experiment: KINOMEscan; type: binding; settings: TLK2, 1 uM
T25 construct: purchased Ambit KINOMEscan (DiscoverX)
Summary of the method: as §1

RIPK5 = molecular target: T26, RIPK5 (Homo sapiens, UniProt Q6XUX3); experiment: KINOMEscan; type: binding; settings: RIPK5, 1 uM
T26 construct: purchased Ambit KINOMEscan (DiscoverX)
Summary of the method: as §1

CDC2L5 = CDC2L5 (Homo sapiens, UniProt Q14004); settings: CDC2L5, 1 uM
Method: as §2

PKNB(M.tuberculosis) = PKNB(M.tuberculosis) (Mycobacterium tuberculosis, UniProt P9WI81); settings: 1 uM
Method: as §2

[4] = test system: panel of colorectal cancer cell lines; experiment: Cell viability (Syto60) in a panel of colorectal cancer cell lines; type: cell-based; settings: 72 hours, 3 cell lines expressing wild-type K-RAS
Method: as §3
Relative cell viability was normalized to an untreated control for each cell line. Error bars represent SEM for 3 independent experiments. […] (PDF) Click here for additional data file.

T2 sequence (P49137 whole entry): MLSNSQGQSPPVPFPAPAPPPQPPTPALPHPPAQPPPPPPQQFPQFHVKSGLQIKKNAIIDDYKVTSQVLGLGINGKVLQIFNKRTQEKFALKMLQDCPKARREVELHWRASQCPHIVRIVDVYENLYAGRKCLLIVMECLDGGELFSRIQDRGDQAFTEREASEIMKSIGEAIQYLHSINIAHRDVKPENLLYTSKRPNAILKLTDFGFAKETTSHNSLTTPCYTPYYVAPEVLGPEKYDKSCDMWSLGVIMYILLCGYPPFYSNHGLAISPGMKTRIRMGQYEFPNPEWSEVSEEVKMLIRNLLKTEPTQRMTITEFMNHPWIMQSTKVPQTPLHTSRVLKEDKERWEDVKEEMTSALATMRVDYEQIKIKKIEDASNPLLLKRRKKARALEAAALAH
T3 sequence (Q13523 whole entry): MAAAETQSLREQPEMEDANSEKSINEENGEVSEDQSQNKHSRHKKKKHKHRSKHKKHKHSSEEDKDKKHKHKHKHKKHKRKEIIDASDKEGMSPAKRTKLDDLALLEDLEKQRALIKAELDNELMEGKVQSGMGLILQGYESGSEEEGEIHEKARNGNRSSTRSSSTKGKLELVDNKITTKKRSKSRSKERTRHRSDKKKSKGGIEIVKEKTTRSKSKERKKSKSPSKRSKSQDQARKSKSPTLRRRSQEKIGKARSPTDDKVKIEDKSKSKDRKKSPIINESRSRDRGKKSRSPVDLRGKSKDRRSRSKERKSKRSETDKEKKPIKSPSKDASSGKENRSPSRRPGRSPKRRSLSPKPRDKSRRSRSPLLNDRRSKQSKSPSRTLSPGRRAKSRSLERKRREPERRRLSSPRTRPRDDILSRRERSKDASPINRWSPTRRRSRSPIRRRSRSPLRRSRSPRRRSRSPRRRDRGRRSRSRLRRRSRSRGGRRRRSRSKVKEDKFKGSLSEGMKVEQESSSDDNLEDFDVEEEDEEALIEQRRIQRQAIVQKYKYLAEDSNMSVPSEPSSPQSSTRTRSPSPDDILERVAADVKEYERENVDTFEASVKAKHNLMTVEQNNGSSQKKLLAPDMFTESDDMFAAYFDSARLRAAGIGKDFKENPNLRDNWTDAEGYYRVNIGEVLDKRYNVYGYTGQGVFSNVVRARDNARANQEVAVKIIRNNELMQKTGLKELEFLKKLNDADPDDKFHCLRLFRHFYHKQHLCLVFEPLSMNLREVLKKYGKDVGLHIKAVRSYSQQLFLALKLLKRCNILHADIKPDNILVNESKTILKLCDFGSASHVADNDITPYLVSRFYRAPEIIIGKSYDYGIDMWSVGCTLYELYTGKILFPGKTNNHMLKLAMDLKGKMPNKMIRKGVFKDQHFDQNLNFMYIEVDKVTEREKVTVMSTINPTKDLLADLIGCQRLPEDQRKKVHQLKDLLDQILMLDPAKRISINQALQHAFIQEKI
T12 sequence (Q9BX84 whole entry): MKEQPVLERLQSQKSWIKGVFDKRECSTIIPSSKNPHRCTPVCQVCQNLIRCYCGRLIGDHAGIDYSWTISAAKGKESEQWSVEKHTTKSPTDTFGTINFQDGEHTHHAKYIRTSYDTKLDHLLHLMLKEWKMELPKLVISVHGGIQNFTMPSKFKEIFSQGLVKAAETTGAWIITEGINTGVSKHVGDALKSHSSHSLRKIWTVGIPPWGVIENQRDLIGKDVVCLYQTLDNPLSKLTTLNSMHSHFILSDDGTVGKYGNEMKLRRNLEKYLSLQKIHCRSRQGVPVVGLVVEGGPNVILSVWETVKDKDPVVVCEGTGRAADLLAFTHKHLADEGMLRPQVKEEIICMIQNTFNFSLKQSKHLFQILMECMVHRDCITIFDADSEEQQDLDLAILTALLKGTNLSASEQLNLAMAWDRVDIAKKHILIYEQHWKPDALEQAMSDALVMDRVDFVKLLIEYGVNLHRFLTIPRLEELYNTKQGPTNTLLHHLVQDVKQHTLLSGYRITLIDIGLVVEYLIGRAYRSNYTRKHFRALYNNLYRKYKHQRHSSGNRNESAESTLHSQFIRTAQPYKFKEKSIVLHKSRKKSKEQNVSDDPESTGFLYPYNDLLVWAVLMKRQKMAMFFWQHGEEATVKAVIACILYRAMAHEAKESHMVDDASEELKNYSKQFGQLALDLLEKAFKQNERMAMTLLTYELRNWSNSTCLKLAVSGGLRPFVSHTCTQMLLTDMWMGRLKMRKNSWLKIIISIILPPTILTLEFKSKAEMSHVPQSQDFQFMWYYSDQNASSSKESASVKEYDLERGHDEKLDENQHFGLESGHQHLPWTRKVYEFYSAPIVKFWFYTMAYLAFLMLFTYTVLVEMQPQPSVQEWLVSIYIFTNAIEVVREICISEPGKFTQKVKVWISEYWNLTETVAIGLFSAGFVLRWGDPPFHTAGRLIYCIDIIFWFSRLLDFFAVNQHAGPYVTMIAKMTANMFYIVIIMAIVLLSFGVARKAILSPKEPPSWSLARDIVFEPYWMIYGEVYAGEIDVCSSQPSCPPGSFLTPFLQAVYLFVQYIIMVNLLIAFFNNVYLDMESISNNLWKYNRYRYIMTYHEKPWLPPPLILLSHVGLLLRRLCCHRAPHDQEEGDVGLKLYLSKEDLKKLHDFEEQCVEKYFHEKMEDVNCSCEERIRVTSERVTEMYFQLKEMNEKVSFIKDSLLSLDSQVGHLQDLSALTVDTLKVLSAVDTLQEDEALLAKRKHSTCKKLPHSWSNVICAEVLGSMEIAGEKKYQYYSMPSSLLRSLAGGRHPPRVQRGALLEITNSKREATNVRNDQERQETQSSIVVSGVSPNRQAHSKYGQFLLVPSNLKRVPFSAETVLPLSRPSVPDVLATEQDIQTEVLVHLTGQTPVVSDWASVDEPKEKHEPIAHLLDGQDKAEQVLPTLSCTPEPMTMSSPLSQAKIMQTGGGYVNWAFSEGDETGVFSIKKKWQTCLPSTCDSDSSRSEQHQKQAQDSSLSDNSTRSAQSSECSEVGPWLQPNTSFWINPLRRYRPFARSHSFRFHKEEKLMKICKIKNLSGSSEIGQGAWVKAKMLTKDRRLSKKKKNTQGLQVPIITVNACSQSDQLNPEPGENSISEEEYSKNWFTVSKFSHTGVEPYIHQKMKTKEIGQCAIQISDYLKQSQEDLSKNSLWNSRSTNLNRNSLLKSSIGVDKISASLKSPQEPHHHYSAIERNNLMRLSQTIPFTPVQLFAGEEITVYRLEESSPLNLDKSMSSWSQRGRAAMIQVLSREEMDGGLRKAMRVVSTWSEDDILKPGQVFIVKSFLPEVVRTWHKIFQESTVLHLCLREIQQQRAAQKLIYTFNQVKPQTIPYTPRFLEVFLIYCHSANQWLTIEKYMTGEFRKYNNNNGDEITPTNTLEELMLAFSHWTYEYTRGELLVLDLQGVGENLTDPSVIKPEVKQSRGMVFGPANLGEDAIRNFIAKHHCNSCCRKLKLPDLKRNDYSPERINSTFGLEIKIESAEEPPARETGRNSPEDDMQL
T24 sequence (P11802 whole entry): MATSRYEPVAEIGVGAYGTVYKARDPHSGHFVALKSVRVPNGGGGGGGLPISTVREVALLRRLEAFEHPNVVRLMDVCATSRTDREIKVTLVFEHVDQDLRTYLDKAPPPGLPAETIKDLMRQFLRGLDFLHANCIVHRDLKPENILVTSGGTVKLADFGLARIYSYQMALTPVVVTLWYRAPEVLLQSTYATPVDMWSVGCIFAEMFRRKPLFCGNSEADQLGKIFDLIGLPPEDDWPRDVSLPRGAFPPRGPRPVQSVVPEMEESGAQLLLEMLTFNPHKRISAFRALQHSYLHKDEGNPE
T24 sequence (P24385 whole entry partner): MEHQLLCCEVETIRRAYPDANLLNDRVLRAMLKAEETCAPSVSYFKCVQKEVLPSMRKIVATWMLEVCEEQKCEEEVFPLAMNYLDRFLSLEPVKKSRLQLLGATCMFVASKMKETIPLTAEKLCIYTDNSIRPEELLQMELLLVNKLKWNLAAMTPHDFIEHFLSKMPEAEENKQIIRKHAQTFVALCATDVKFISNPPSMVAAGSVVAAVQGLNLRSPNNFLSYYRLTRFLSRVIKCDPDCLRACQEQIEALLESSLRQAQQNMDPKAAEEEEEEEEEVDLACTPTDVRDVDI
T25 sequence (Q86UE8 whole entry): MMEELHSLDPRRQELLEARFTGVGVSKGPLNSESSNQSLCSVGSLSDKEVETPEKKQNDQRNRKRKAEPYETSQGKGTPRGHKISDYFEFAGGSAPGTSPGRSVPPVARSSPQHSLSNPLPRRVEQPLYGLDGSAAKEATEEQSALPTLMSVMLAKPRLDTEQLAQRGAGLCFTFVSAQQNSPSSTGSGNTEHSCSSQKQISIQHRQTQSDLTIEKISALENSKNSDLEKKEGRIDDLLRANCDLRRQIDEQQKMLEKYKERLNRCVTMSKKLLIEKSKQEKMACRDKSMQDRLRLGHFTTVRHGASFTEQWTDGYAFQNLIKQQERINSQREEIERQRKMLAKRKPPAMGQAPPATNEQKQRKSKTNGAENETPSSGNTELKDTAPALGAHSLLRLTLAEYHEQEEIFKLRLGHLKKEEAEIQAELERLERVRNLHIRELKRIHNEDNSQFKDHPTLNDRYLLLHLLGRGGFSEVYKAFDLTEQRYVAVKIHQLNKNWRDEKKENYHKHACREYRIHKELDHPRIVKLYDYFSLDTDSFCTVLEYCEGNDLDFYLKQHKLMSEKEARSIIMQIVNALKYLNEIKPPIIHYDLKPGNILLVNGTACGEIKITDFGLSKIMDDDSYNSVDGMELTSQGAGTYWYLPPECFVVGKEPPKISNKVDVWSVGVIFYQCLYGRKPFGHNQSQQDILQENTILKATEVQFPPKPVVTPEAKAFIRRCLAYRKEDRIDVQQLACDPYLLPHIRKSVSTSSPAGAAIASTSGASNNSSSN

COc1ccc(-c2cc3nccn3c(Nc3ncccc3C(N)=O)n2)cc1OC.Cl.Cl [BAY61-3606, 2-[7-(3,4-dimethoxyphenyl)-imidazo [1,2-c]pyrimidin-5-ylamino] nicotinamide dihydrochloride, reference compound]
% binding compared to no inhibitor control [1]: 92% | % binding compared to no inhibitor control (MAPKAPK2): 100% | number of kinases with binding inhibited by greater than 90% (panel of 402 kinases; panel of 402 kinases): 15 kinases | sensitization to AZ-628 (cell viability) (HKe-3 (K-RAS^−/+); HKe-3 cells with MAP4K2 knockdown, 1 µM + 1 µM AZ-628): no longer sensitizes | cooperation with / sensitization to AZ-628 (cell viability) (HKe-3 (K-RAS^−/+)): became sensitive | % binding compared to no inhibitor control (PRP4): 77%

COc1ccccc1Nc1nc(-c2ccc(OC)c(OC)c2)cc2nccn12 [BAY derivative 6]
% binding compared to no inhibitor control (PIK3CA(H1047L)): 100% | % binding compared to no inhibitor control [2]: 86% | % binding compared to no inhibitor control (MET(M1250T)): 100% | % binding compared to no inhibitor control (FLT3): 52% | % binding compared to no inhibitor control (MEK5): 100% | % binding compared to no inhibitor control (FLT3(D835Y)): 50% | % binding compared to no inhibitor control (SGK3): 100% | % binding compared to no inhibitor control (EGFR(T790M)): 48% | % binding compared to no inhibitor control (TRPM6): 95% | % binding compared to no inhibitor control (EPHA7): 100% | % binding compared to no inhibitor control (MTOR): 67% | % binding compared to no inhibitor control (EGFR(L861Q)): 68% | % binding compared to no inhibitor control [3]: 100% | % binding compared to no inhibitor control (KIT(D816H)): 61% | % binding compared to no inhibitor control (RET(M918T)): 72% | % binding compared to no inhibitor control (S6K1): 84% | % binding compared to no inhibitor control (RET(V804M)): 94% | % binding compared to no inhibitor control (MYLK4): 100% | % binding compared to no inhibitor control (CAMK2G): 100% | % binding compared to no inhibitor control (NEK3): 100% | % binding compared to no inhibitor control (CDK4-cyclinD1): 100% | % binding compared to no inhibitor control (TLK2): 100% | % binding compared to no inhibitor control (RIPK5): 100% | % binding compared to no inhibitor control (MAPKAPK2): 93% | % binding compared to no inhibitor control (CDC2L5): 88% | % binding compared to no inhibitor control (PKNB(M.tuberculosis)): 99% | ability to competitively inhibit active site (ATP) binding across the kinase panel (panel of 402 kinases): failed to effectively inhibit ATP binding by the majority of kinases | cell lines expressing wild-type K-RAS that responded [4]: 0/3 | cooperation with / sensitization to AZ-628 (cell viability) (HKe-3 (K-RAS^−/+)): lost its ability to cooperate with AZ-628 | % binding compared to no inhibitor control (PRP4): 100%
